Results from PubChem BioAssay AID2060504 (Molecular Pharmacology Branch, DTP, NCI, 2025).

Test system: 636577-100-R-J1-PDC complex spheroid viability
Experiment: Anticancer human tumor 636577-100-R-J1-PDC patient-derived endometrial adenocarcinoma cell line growth inhibition [GQUAD]
Settings: for IC50: curve of first compound; for viability, T/C: stronger effect = lower value; active means viability on the fitted dose curve at most 10% of control; inactive means the rest
Outline: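 Viability of tumor cells grown as complex spheroids with endothelial and stromal cells, exposed to drug combinations. Top concentration at or near clinical Cmax (else 10 microM), diluted in half-log increments.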

[1] = second compound 0.0316 µM, first compound 0.0316 µM
[2] = second compound 0.0316 µM, first compound 0.1 µM
[3] = second compound 0.0316 µM, first compound 0.316 µM
[4] = second compound 0.0316 µM, first compound 1 µM
[5] = second compound 0.0316 µM, first compound 3.16 µM
[6] = second compound 0.0316 µM, first compound 10 µM
[7] = second compound 0.1 µM, first compound 0.0316 µM
[8] = second compound 0.1 µM, first compound 0.1 µM
[9] = second compound 0.1 µM, first compound 0.316 µM
[10] = second compound 0.1 µM, first compound 1 µM
[11] = second compound 0.1 µM, first compound 3.16 µM
[12] = second compound 0.1 µM, first compound 10 µM
[13] = second compound 0.316 µM, first compound 0.0316 µM
[14] = second compound 0.316 µM, first compound 0.1 µM
[15] = second compound 0.316 µM, first compound 0.316 µM
[16] = second compound 0.316 µM, first compound 1 µM
[17] = second compound 0.316 µM, first compound 3.16 µM
[18] = second compound 0.316 µM, first compound 10 µM
[19] = second compound 1 µM, first compound 0.0316 µM
[20] = second compound 1 µM, first compound 0.1 µM
[21] = second compound 1 µM, first compound 0.316 µM
[22] = second compound 1 µM, first compound 1 µM
[23] = second compound 1 µM, first compound 3.16 µM
[24] = second compound 1 µM, first compound 10 µM
[25] = second compound 3.16 µM, first compound 0.0316 µM
[26] = second compound 3.16 µM, first compound 0.1 µM
[27] = second compound 3.16 µM, first compound 0.316 µM
[28] = second compound 3.16 µM, first compound 1 µM
[29] = second compound 3.16 µM, first compound 3.16 µM
[30] = second compound 3.16 µM, first compound 10 µM
[31] = second compound 10 µM, first compound 0.0316 µM
[32] = second compound 10 µM, first compound 0.1 µM
[33] = second compound 10 µM, first compound 0.316 µM
[34] = second compound 10 µM, first compound 1 µM
[35] = second compound 10 µM, first compound 3.16 µM
[36] = second compound 10 µM, first compound 10 µM
[37] = second compound 0.0316 µM, first compound 0.000999 µM
[38] = second compound 0.0316 µM, first compound 0.00316 µM
[39] = second compound 0.0316 µM, first compound 0.00999 µM
[40] = second compound 0.0316 µM, first compound 0.0999 µM
[41] = second compound 0.1 µM, first compound 0.000999 µM
[42] = second compound 0.1 µM, first compound 0.00316 µM
[43] = second compound 0.1 µM, first compound 0.00999 µM
[44] = second compound 0.1 µM, first compound 0.0999 µM
[45] = second compound 0.316 µM, first compound 0.000999 µM
[46] = second compound 0.316 µM, first compound 0.00316 µM
[47] = second compound 0.316 µM, first compound 0.00999 µM
[48] = second compound 0.316 µM, first compound 0.0999 µM
[49] = second compound 1 µM, first compound 0.000999 µM
[50] = second compound 1 µM, first compound 0.00316 µM
[51] = second compound 1 µM, first compound 0.00999 µM
[52] = second compound 1 µM, first compound 0.0999 µM
[53] = second compound 3.16 µM, first compound 0.000999 µM
[54] = second compound 3.16 µM, first compound 0.00316 µM
[55] = second compound 3.16 µM, first compound 0.00999 µM
[56] = second compound 3.16 µM, first compound 0.0999 µM
[57] = second compound 10 µM, first compound 0.000999 µM
[58] = second compound 10 µM, first compound 0.00316 µM
[59] = second compound 10 µM, first compound 0.00999 µM
[60] = second compound 10 µM, first compound 0.0999 µM
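Further: viability read after seven days of drug exposure.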
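Wherever viability, T/C is given: luminescence signal used as a proxy for viable cells; 100% = DMSO vehicle control wells.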

CC(C)(O)C1CCC(Nc2ccc3ncc(-c4cccc(C(F)(F)F)c4)n3n2)CC1 (stereo not drawn) + CN(C)c1ccc(Nc2c3ccc(NC(=O)CCN4CCCC4)cc3nc3cc(NC(=O)CCN4CCCC4)ccc23)cc1
1520 nM: IC50 (second compound 1 µM)
inactive: viability, T/C [1] 107% | viability, T/C [2] 82% | viability, T/C [3] 104% | viability, T/C [4] 77.6% | viability, T/C [5] 34.6% | viability, T/C [6] 33.8% | viability, T/C [7] 83.9% | viability, T/C [8] 59.2% | viability, T/C [9] 109% | viability, T/C [10] 57.8% | viability, T/C [11] 30% | viability, T/C [12] 37.2% | viability, T/C [13] 69.3% | viability, T/C [14] 57.9% | viability, T/C [15] 96.7% | viability, T/C [16] 63.6% | viability, T/C [17] 30.6% | viability, T/C [18] 28.1% | viability, T/C [19] 77.2% | viability, T/C [20] 54.1% | viability, T/C [21] 66.5% | viability, T/C [22] 63.6% | viability, T/C [23] 26.4% | viability, T/C [24] 22.2% | viability, T/C [25] 41.3% | viability, T/C [26] 46.2% | viability, T/C [27] 40.6% | viability, T/C [28] 33.5% | viability, T/C [29] 15.8%
active: viability, T/C [30] 9.06% | viability, T/C [31] 5.85% | viability, T/C [32] 5.51% | viability, T/C [33] 5.56% | viability, T/C [34] 4.55% | viability, T/C [35] 1.2% | viability, T/C [36] 0.47%
< 31.6 nM: IC50 (second compound 3.16 µM) | IC50 (second compound 10 µM)
1580 nM: IC50 (second compound 0.316 µM)
1450 nM: IC50 (second compound 0.1 µM)
2080 nM: IC50 (second compound 0.0316 µM)

Cc1[nH]c2ccccc2c1CCNCc1ccc(/C=C/C(=O)NO)cc1 + CN(C)c1ccc(Nc2c3ccc(NC(=O)CCN4CCCC4)cc3nc3cc(NC(=O)CCN4CCCC4)ccc23)cc1
4.62 nM: IC50 (second compound 0.1 µM)
active: viability, T/C [3] 12.3% | viability, T/C [44] 8.43% | viability, T/C [9] 8.87% | viability, T/C [21] 10.1% | viability, T/C [57] 6.06% | viability, T/C [58] 7.54% | viability, T/C [59] 7.16% | viability, T/C [31] 6.21% | viability, T/C [60] 6.38% | viability, T/C [33] 3.97%
3.15 nM: IC50 (second compound 1 µM)
< 0.999 nM: IC50 (second compound 3.16 µM) | IC50 (second compound 10 µM)
4.84 nM: IC50 (second compound 0.316 µM)
inactive: viability, T/C [37] 84% | viability, T/C [38] 49.5% | viability, T/C [39] 40.6% | viability, T/C [1] 15.7% | viability, T/C [40] 8.74% | viability, T/C [41] 80.7% | viability, T/C [42] 56.5% | viability, T/C [43] 36.1% | viability, T/C [7] 14.2% | viability, T/C [45] 62.3% | viability, T/C [46] 62.5% | viability, T/C [47] 30.4% | viability, T/C [13] 14% | viability, T/C [48] 8.97% | viability, T/C [15] 9.2% | viability, T/C [49] 65.4% | viability, T/C [50] 48.6% | viability, T/C [51] 31.5% | viability, T/C [19] 13.9% | viability, T/C [52] 9.95% | viability, T/C [53] 37.1% | viability, T/C [54] 29.2% | viability, T/C [55] 20.2% | viability, T/C [25] 15.6% | viability, T/C [56] 10.3% | viability, T/C [27] 10.9%
3.84 nM: IC50 (second compound 0.0316 µM)

CC1COCCN1c1cc(C2(O)CC3CCC(C2)O3)c2cnn(-c3ccn[nH]3)c2n1 (stereo not drawn) + CN(C)c1ccc(Nc2c3ccc(NC(=O)CCN4CCCC4)cc3nc3cc(NC(=O)CCN4CCCC4)ccc23)cc1
46.2 nM: IC50 (second compound 0.0316 µM)
active: viability, T/C [4] 7.23% | viability, T/C [5] 3% | viability, T/C [6] 0.68% | viability, T/C [10] 6.63% | viability, T/C [11] 2.93% | viability, T/C [12] 0.63% | viability, T/C [16] 7.39% | viability, T/C [17] 2.94% | viability, T/C [18] 0.62% | viability, T/C [22] 7.03% | viability, T/C [23] 2.84% | viability, T/C [24] 0.8% | viability, T/C [28] 6.87% | viability, T/C [29] 2.75% | viability, T/C [30] 0.79% | viability, T/C [31] 5.13% | viability, T/C [32] 4.81% | viability, T/C [33] 2.43% | viability, T/C [34] 2.03% | viability, T/C [35] 1.14% | viability, T/C [36] 0.3%
33.6 nM: IC50 (second compound 0.1 µM)
inactive: viability, T/C [1] 59.8% | viability, T/C [2] 30.1% | viability, T/C [3] 14.8% | viability, T/C [7] 51.9% | viability, T/C [8] 25.7% | viability, T/C [9] 15.9% | viability, T/C [13] 49.4% | viability, T/C [14] 27.2% | viability, T/C [15] 14.4% | viability, T/C [19] 44.5% | viability, T/C [20] 24.9% | viability, T/C [21] 13.1% | viability, T/C [25] 23.6% | viability, T/C [26] 18.4% | viability, T/C [27] 12.6%
< 31.6 nM: IC50 (second compound 0.316 µM) | IC50 (second compound 1 µM) | IC50 (second compound 3.16 µM) | IC50 (second compound 10 µM)

Cn1ncnc1[C@H]1c2n[nH]c(=O)c3cc(F)cc(c23)N[C@@H]1c1ccc(F)cc1 + Cc1[nH]c2ccc(F)cc2c1-c1nc2c3cccnc3c3ncccc3c2[nH]1
29.3 nM: IC50 (second compound 0.0316 µM)
77.7 nM: IC50 (second compound 0.1 µM)
< 0.999 nM: IC50 (second compound 3.16 µM)
82.7 nM: IC50 (second compound 1 µM)
86.6 nM: IC50 (second compound 10 µM)
34.5 nM: IC50 (second compound 0.316 µM)
inactive: viability, T/C [37] 49.4% | viability, T/C [38] 88% | viability, T/C [39] 94.7% | viability, T/C [1] 48% | viability, T/C [40] 46.8% | viability, T/C [3] 39.2% | viability, T/C [41] 82.3% | viability, T/C [42] 110% | viability, T/C [43] 85% | viability, T/C [7] 59% | viability, T/C [44] 54.2% | viability, T/C [9] 30.8% | viability, T/C [45] 64.6% | viability, T/C [46] 102% | viability, T/C [47] 68.7% | viability, T/C [13] 51.8% | viability, T/C [48] 50.9% | viability, T/C [15] 35.7% | viability, T/C [49] 35.3% | viability, T/C [50] 76.3% | viability, T/C [51] 63.1% | viability, T/C [19] 68.7% | viability, T/C [52] 47.9% | viability, T/C [21] 38.4% | viability, T/C [53] 36% | viability, T/C [54] 36.9% | viability, T/C [55] 43.2% | viability, T/C [25] 37.5% | viability, T/C [56] 35.5% | viability, T/C [27] 25.3% | viability, T/C [57] 62.5% | viability, T/C [58] 47% | viability, T/C [59] 62.2% | viability, T/C [31] 57.9% | viability, T/C [60] 46.5% | viability, T/C [33] 36.4%
